Values joined by “and” are separate entries in the source; they are usually repeats but may differ in a detail not shown here. Equal values may be shown once. Inconclusive results and toxic doses are left out.
Tested on: P388 leukemia ip, CD2F1 mice, survival T/C
Assay: NCI In Vivo Anticancer Drug Screen. Data for tumor model P388 Leukemia (intraperitoneal) in CD2F1 (CDF1) mice
Conditions: endpoint: median survival time, higher = longer survival
Outline: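 Mice carrying the transplanted tumor received test compound or vehicle. Survival was recorded in each group, and the value is the treated-group measurement divided by that of the vehicle-treated control group.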

[1] = dose: 50.0 mg/kg/injection, schedule: Q01DX005 (ip), vehicle: saline with Tween-80
[2] = dose: 100.0 mg/kg/injection, schedule: Q04DX002 (ip), vehicle: saline with Tween-80
[3] = dose: 200.0 mg/kg/injection, schedule: Q04DX002 (ip), vehicle: saline with Tween-80
[4] = dose: 60.0 mg/kg/injection, schedule: Q01DX005 (ip), vehicle: saline
[5] = dose: 120.0 mg/kg/injection, schedule: Q01DX005 (ip), vehicle: saline
[6] = dose: 240.0 mg/kg/injection, schedule: Q01DX005 (ip), vehicle: saline

CCC(=O)n1c(Cl)c(C=O)c2ccccc21
T/C (dose: 100.0 mg/kg/injection, schedule: Q01DX001 (ip), vehicle: Klucel (hydroxypropylcellulose) (HPC)): 99 % of control | T/C (dose: 200.0 mg/kg/injection, schedule: Q01DX001 (ip), vehicle: Klucel (hydroxypropylcellulose) (HPC)): 102 % of control | T/C (dose: 400.0 mg/kg/injection, schedule: Q01DX001 (ip), vehicle: Klucel (hydroxypropylcellulose) (HPC)): 94 % of control

CCc1nc(-c2ccccc2)nc2c1nc(C(C)C)n2Nc1ccccc1
T/C (dose: 100.0 mg/kg/injection, schedule: Q01DX001 (ip), vehicle: saline with Tween-80): 104 % of control | T/C (dose: 200.0 mg/kg/injection, schedule: Q01DX001 (ip), vehicle: saline with Tween-80): 93 % of control | T/C (dose: 400.0 mg/kg/injection, schedule: Q01DX001 (ip), vehicle: saline with Tween-80): 89 % of control

CC(C)[C@@H]1CC[C@@H](C)C[C@H]1N
T/C (dose: 12.5 mg/kg/injection, schedule: Q01DX005 (ip), vehicle: saline): 107 % of control | T/C (dose: 25.0 mg/kg/injection, schedule: Q01DX005 (ip), vehicle: saline): 98 % of control | T/C [1]: 113 % of control | T/C (dose: 50.0 mg/kg/injection, schedule: Q01DX005 (ip), vehicle: saline): 100 % of control

OCC12C=COC1OC2(c1ccccc1)c1ccccc1 (stereo not drawn)
T/C (dose: 15.0 mg/kg/injection, schedule: Q01DX005 (ip), vehicle: saline with Tween-80): 100 % of control | T/C (dose: 30.0 mg/kg/injection, schedule: Q01DX005 (ip), vehicle: saline with Tween-80): 95 % of control | T/C (dose: 60.0 mg/kg/injection, schedule: Q01DX005 (ip), vehicle: saline with Tween-80): 89 % of control and 98 % of control

O=c1[nH]c2n[nH]c(=S)n2c2c1CCC2
T/C (dose: 50.0 mg/kg/injection, schedule: Q04DX002 (ip), vehicle: saline with Tween-80): 99 % of control | T/C [2]: 97 % of control | T/C [3]: 99 % of control

O=C(COc1ccc([N+](=O)[O-])cc1)NN1C(=O)c2ccc([N+](=O)[O-])cc2C1=O
T/C (dose: 60.0 mg/kg/injection, schedule: Q01DX005 (ip), vehicle: Klucel (hydroxypropylcellulose) (HPC)): 92 % of control | T/C (dose: 120.0 mg/kg/injection, schedule: Q01DX005 (ip), vehicle: Klucel (hydroxypropylcellulose) (HPC)): 91 % of control | T/C (dose: 240.0 mg/kg/injection, schedule: Q01DX005 (ip), vehicle: Klucel (hydroxypropylcellulose) (HPC)): 87 % of control

O=C(CC1NCCCC1O)Cn1cnc2ccccc2c1=O (stereo not drawn)
T/C (dose: 1.0 mg/kg/injection, schedule: Q01DX009 (ip), vehicle: distilled water + alcohol): 116 % of control | T/C (dose: 2.0 mg/kg/injection, schedule: Q01DX009 (ip), vehicle: distilled water + alcohol): 107 % of control | T/C (dose: 4.0 mg/kg/injection, schedule: Q01DX009 (ip), vehicle: distilled water + alcohol): 107 % of control

COc1cc(-c2ccc(N=Nc3cc(S(=O)(=O)O)c4ccccc4c3O)c(OC)c2)ccc1N=Nc1cc(S(=O)(=O)O)c2ccccc2c1O
T/C (dose: 100.0 mg/kg/injection, schedule: Q01DX009 (ip), vehicle: saline): 99 % of control | T/C (dose: 200.0 mg/kg/injection, schedule: Q01DX009 (ip), vehicle: saline): 104 % of control | T/C (dose: 400.0 mg/kg/injection, schedule: Q01DX009 (ip), vehicle: saline): 115 % of control

[Cl][Ru]([Cl])([Cl])([Cl])([Cl])[Cl]
T/C (dose: 6.25 mg/kg/injection, schedule: Q04DX003 (ip), vehicle: saline): 117 % of control and 123 % of control | T/C (dose: 12.5 mg/kg/injection, schedule: Q04DX003 (ip), vehicle: saline): 117 % of control and 123 % of control | T/C (dose: 25.0 mg/kg/injection, schedule: Q04DX003 (ip), vehicle: saline): 117 % of control | T/C (dose: 50.0 mg/kg/injection, schedule: Q04DX003 (ip), vehicle: saline): 123 % of control | T/C (dose: 100.0 mg/kg/injection, schedule: Q04DX003 (ip), vehicle: saline): 111 % of control

NC(CCC(=O)NC(CSCC(=O)Nc1ccc(O)cc1)C(=O)NCC(=O)O)C(=O)O (stereo not drawn)
T/C [4]: 97 % of control | T/C [5]: 97 % of control | T/C [6]: 97 % of control

COc1cc(C2NC(=S)NC2=S)ccc1O (stereo not drawn)
T/C (dose: 25.0 mg/kg/injection, schedule: Q04DX003 (ip), vehicle: saline with Tween-80): 109 % of control | T/C (dose: 50.0 mg/kg/injection, schedule: Q04DX003 (ip), vehicle: saline with Tween-80): 104 % of control | T/C (dose: 100.0 mg/kg/injection, schedule: Q04DX003 (ip), vehicle: saline with Tween-80): 109 % of control

COC(=O)C1CC(c2ccccc2)N(C(C)(C)C)O1 (stereo not drawn)
T/C [2]: 97 % of control | T/C [3]: 100 % of control | T/C (dose: 400.0 mg/kg/injection, schedule: Q04DX002 (ip), vehicle: saline with Tween-80): 100 % of control

CC1(C)OC[C@@H](N)[C@@H](O)CO1
T/C [4]: 104 % of control | T/C [5]: 104 % of control | T/C [6]: 118 % of control

COc1ccc(OC)c(NC(=O)Nc2nccs2)c1
T/C (dose: 22.5 mg/kg/injection, schedule: Q01DX009 (ip), vehicle: Klucel (hydroxypropylcellulose) (HPC)): 99 % of control | T/C (dose: 45.0 mg/kg/injection, schedule: Q01DX009 (ip), vehicle: Klucel (hydroxypropylcellulose) (HPC)): 100 % of control | T/C (dose: 90.0 mg/kg/injection, schedule: Q01DX009 (ip), vehicle: Klucel (hydroxypropylcellulose) (HPC)): 97 % of control | T/C (dose: 180.0 mg/kg/injection, schedule: Q01DX009 (ip), vehicle: Klucel (hydroxypropylcellulose) (HPC)): 92 % of control

CC1CN(C(=O)c2ccccc2)CC/C1=N\O (stereo not drawn)
T/C [1]: 97 % of control | T/C (dose: 100.0 mg/kg/injection, schedule: Q01DX005 (ip), vehicle: saline with Tween-80): 93 % of control | T/C (dose: 200.0 mg/kg/injection, schedule: Q01DX005 (ip), vehicle: saline with Tween-80): 101 % of control

Nc1nc(-c2cc(-c3cccc4ccccc34)nc(N)n2)cc(-c2cccc3ccccc23)n1
T/C (dose: 60.0 mg/kg/injection, schedule: Q01DX005 (ip), vehicle: suspension in saline): 101 % of control | T/C (dose: 120.0 mg/kg/injection, schedule: Q01DX005 (ip), vehicle: suspension in saline): 100 % of control | T/C (dose: 240.0 mg/kg/injection, schedule: Q01DX005 (ip), vehicle: suspension in saline): 105 % of control

N#C/C(C(=S)S)=C(/O)c1ccccc1
T/C (dose: 25.0 mg/kg/injection, schedule: Q01DX009 (ip), vehicle: saline sonified): 104 % of control | T/C (dose: 50.0 mg/kg/injection, schedule: Q01DX009 (ip), vehicle: saline sonified): 109 % of control | T/C (dose: 100.0 mg/kg/injection, schedule: Q01DX009 (ip), vehicle: saline sonified): 100 % of control

CN1C(=O)C(n2[nH]c(=O)n(-c3ccc(Cl)cc3)c2=O)C(=O)N(C)C1=O
T/C (dose: 50.0 mg/kg/injection, schedule: Q01DX009 (ip), vehicle: Klucel (hydroxypropylcellulose) (HPC)): 100 % of control | T/C (dose: 100.0 mg/kg/injection, schedule: Q01DX009 (ip), vehicle: Klucel (hydroxypropylcellulose) (HPC)): 100 % of control | T/C (dose: 200.0 mg/kg/injection, schedule: Q01DX009 (ip), vehicle: Klucel (hydroxypropylcellulose) (HPC)): 97 % of control

Cc1cc(=O)oc2cc(OC(=O)Nc3ccc(Cl)c(Cl)c3)ccc12
T/C (dose: 3.12 mg/kg/injection, schedule: Q01DX009 (ip), vehicle: saline): 101 % of control | T/C (dose: 6.25 mg/kg/injection, schedule: Q01DX009 (ip), vehicle: saline): 100 % of control | T/C (dose: 12.5 mg/kg/injection, schedule: Q01DX009 (ip), vehicle: saline): 101 % of control and 90 % of control

CC(Cc1ccc(O)cc1)NCC(O)c1ccc(O)c(O)c1 (stereo not drawn)
T/C (dose: 50.0 mg/kg/injection, schedule: Q01DX009 (ip), vehicle: saline with Tween-80): 104 % of control | T/C (dose: 100.0 mg/kg/injection, schedule: Q01DX009 (ip), vehicle: saline with Tween-80): 109 % of control

COc1c2c(cc3oc(=O)ccc13)OC(C)(C)C=C2
T/C (dose: 12.0 mg/kg/injection, schedule: Q01DX005 (ip), vehicle: saline with Tween-80): 107 % of control | T/C (dose: 24.0 mg/kg/injection, schedule: Q01DX005 (ip), vehicle: saline with Tween-80): 98 % of control | T/C (dose: 48.0 mg/kg/injection, schedule: Q01DX005 (ip), vehicle: saline with Tween-80): 105 % of control | T/C (dose: 96.0 mg/kg/injection, schedule: Q01DX005 (ip), vehicle: saline with Tween-80): 100 % of control

CCCOC1=C(N2CC2)C(=O)C(OCCC)=C(N2CC2)C1=O
T/C (dose: 0.89 mg/kg/injection, schedule: Q01DX009 (ip), vehicle: saline with Tween-80): 106 % of control | T/C (dose: 3.0 mg/kg/injection, schedule: Q01DX009 (ip), vehicle: saline with Tween-80): 179 % of control | T/C (dose: 4.0 mg/kg/injection, schedule: Q01DX009 (ip), vehicle: saline with Tween-80): 181 % of control | T/C (dose: 6.0 mg/kg/injection, schedule: Q01DX009 (ip), vehicle: saline with Tween-80): 186 % of control | T/C (dose: 6.25 mg/kg/injection, schedule: Q01DX009 (ip), vehicle: saline with Tween-80): 190 % of control | T/C (dose: 9.0 mg/kg/injection, schedule: Q01DX009 (ip), vehicle: saline with Tween-80): 109 % of control

Source: PubChem BioAssay AID330 (DTP/NCI, 2004)
